This is an account of results in article PMC9155639 (Journal of Antimicrobial Chemotherapy, 2022).

The target of data set [1] is T1, BpMip (Burkholderia pseudomallei, UniProt Q63J95). The experiment in a line: biochemical.
Data set [2] addresses T1, BpMip. In words: biochemical. The data set is classed as binding, B. pseudomallei.

The term IC50 denotes the concentration at which inhibition is half-maximal. The low end stands for inhibition by little substance, the high end for a need for much substance. For orientation: Ki means a dissociation constant, usually derived from enzyme kinetics or from competition with a known ligand. Lower therefore signals higher affinity. By Kd is commonly meant the constant that tells how readily two partners part at equilibrium.

T1 sequence (Q63J95 whole entry, added parts left off): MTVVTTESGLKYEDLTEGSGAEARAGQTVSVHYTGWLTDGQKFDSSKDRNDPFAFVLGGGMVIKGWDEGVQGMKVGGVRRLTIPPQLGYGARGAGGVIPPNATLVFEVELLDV

Consider `COc1cc(NC(=O)CCNC(=O)[C@@H]2CCCCN2S(=O)(=O)Cc2ccccc2)cc(OC)c1OC` [SF339, (S)-1-(benzylsulfonyl)-N-(3-oxo-3-((3,4,5-trimethoxyphenyl)amino)propyl)piperidine-2-carboxamide], for which the IC50 at BpMip [1] stood at 0.26 µM. At BpMip [1] (Ki (μM) Mean), the Ki stood at 0.45 µM. In addition, in the data set on B. pseudomallei K96243, the “effect on B. pseudomallei-induced cytotoxicity” value was “no statistically significant difference”. Moreover, the equilibrium dissociation constant (Kd) on BpMip [2] worked out at 10.9 ± 0.2 µM.
